Results on five compounds are retold here after patent US6117869A, “Compounds for and methods of inhibiting matrix metalloproteinases” (Warner-Lambert Company, priority 1999, dated 2000).

Usually IC50 stands for the concentration needed to halve the response being measured. A lower IC50 goes with greater potency in that assay.

Assay [1] has as its system human ovarian carcinoma xenografts. The note with it: mice bearing human ovarian carcinoma xenografts; cited from earlier work. On the technique in general: A xenograft is tissue or cells of one species grown in another, often human tumour cells in immunodeficient mice.
In assay [2] the target is T1, MMP-1 (Homo sapiens, UniProt P03956).
T1 construct: purchased Washington University School of Medicine, St. Louis, Mo
T1 sequence (P03956 100-469): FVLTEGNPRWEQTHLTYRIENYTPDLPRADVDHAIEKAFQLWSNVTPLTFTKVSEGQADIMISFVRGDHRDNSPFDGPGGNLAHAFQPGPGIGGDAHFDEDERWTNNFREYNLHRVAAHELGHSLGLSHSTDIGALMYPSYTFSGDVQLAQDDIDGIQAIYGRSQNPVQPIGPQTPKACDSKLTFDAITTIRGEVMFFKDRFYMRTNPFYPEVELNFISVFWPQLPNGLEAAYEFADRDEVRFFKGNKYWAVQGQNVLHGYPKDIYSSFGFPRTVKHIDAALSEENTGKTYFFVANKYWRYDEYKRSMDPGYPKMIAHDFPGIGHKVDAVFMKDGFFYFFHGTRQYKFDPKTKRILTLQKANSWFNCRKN
As to the kind of experiment: Thiopeptolide assay, MMP-1. The note with it: full-length enzyme, 5 nM; pH 7.0; 100 μM thiopeptolide substrate. It is filed as biochemical. How it is done:
(§1) IC50 values were determined using a thiopeptolide substrate, Ac-Pro-Leu-Gly-thioester-Leu-Leu-Gly-OEt (Ye Q. Z., Johnson L. L., Hupe D. J., and Baragi V., "Purification and Characterization of the Human Stromelysin Catalytic Domain Expressed in Escherichia coli," Biochemistry,1992;31:11231-11235). MMP-1, MMP-7, and MMP-13 activity was assayed in a method similar to MMP-2 and MMP-3 (SCD and GCD). MMP-1 can be obtained from Washington University School of Medicine, St. Louis, Mo. MMP-7 can be obtained in accordance with the known procedure set forth by Ye Q. Z., Johnson L. L., and Baragi V., "Gene Syntheses and Expression in E. coli for PUMP, a Human Matrix Metalloproteinase," Biochem. and Biophys. Res. Comm., 1992;186:143-149. MMP13 can be obtained in accordance with the known procedure set forth by Freije J. M. P. et al., "Molecular Cloning and Expression of Collegenase-3, a Novel Human Matrix Metalloproteinase Produced by Breast Carcinomas," J. Bio. Chem., 1994;269:16766-16773.
(§2) Hydrolysis of the thiopeptolide substrate Ac-Pro-Leu-Gly-thioester-Leu-Leu-Gly-OEt (Bachem) is used as the primary screen to determine IC50 values for MMP inhibitors. A 100 μL reaction contains 1 mM 5,5'-dithiobis(2-nitrobenzoic acid) (DTNB), 100 μM substrate, 0.1% BRIJ® 35, PROTEIN GRADE®, Detergent, 10% solution, Sigma, St. Louis, Mo. [polyoxyethyleneglycol dodecyl ether; polyoxyethylene (23) lauryl ether], enzyme, and inhibitor in the appropriate reaction buffer. Activated full-length enzymes are assayed at 5 nM, Stromelysin Catalytic Domain (SCD) at 10 nM, and Gelatinase A Catalytic Domain (GaCD) at 1 nM. Inhibitors are screened from 100 μM to 1 nM. Full-length enzymes (MMP-1 and MMP-7) are assayed in 50 mM HEPES, 10 mM CaCl2, pH 7.0; SCD in 50 mM MES, 10 mM CaCl2, pH 6.0; and GaCD in 50 mM MOPS, 10 mM CaCl2, 10 μM ZnCl2, pH 7.0. The change in absorbance at 405 nm is monitored on a ThermoMax microplate reader at room temperature continuously for 20 minutes.

Assay [3] addresses T2, MMP-3CD (Homo sapiens, UniProt P08254).
T2 construct: Stromelysin Catalytic Domain (SCD) at 10 nM; made in house; host or cells: Escherichia coli
In words: Thiopeptolide assay, stromelysin-1 catalytic domain (SCD). The class given is biochemical. The note with it: 10 nM, pH 6.0, 100 μM thiopeptolide substrate. The procedure:
as §1, §2

Assay [4] relates to MMP-14CD. In words: Thiopeptolide assay, MMP-14CD. It is filed as biochemical. The note with it: catalytic domain; thiopeptolide substrate. How it is done: as §1, §2
The target of assay [5] is T3, MMP-7 (Homo sapiens, UniProt P09237).
T3 construct: made in house; host or cells: E. coli
T3 sequence (P09237 95-267): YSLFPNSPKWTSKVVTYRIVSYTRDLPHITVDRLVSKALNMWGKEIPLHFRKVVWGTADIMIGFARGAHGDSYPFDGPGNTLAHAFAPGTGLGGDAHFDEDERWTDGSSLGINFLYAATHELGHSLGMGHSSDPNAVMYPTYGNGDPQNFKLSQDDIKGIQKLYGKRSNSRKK
As to the kind of experiment: Thiopeptolide assay, MMP-7. The settings on record: full-length enzyme, 5 nM; pH 7.0; 100 μM thiopeptolide substrate. The class given is biochemical. The procedure: as §1, §2

The subject of assay [6] is MMP-13CD. In words: Thiopeptolide assay, MMP-13CD. It is filed as biochemical, Human. The settings on record: catalytic domain; thiopeptolide substrate. How it is done: as §1, §2
Assay [7] deals with MMP-2CD. In words: Thiopeptolide assay, gelatinase A catalytic domain (GCD/GaCD). The note with it: 1 nM, pH 7.0, 100 μM thiopeptolide substrate. The class given is biochemical. The procedure:
as §1, §2

Assay [8] deals with MMP-9 (Homo sapiens, UniProt P14780). As to the kind of experiment: Thiopeptolide assay, MMP-9. It is filed as biochemical. The note with it: thiopeptolide substrate. The procedure: [The source words this procedure for another target and reports this target under the same test.] as §1, §2
Assay [9] deals with experimental allergic encephalomyelitis (EAE). The note with it: dose dependent; cited from earlier work.
The subject of assay [10] is bovine nasal cartilage. The settings on record: cited from earlier work.
In assay [11] the test system is pig articular cartilage. The settings on record: cited from earlier work.

MMP-9, sequence (P14780 94-707): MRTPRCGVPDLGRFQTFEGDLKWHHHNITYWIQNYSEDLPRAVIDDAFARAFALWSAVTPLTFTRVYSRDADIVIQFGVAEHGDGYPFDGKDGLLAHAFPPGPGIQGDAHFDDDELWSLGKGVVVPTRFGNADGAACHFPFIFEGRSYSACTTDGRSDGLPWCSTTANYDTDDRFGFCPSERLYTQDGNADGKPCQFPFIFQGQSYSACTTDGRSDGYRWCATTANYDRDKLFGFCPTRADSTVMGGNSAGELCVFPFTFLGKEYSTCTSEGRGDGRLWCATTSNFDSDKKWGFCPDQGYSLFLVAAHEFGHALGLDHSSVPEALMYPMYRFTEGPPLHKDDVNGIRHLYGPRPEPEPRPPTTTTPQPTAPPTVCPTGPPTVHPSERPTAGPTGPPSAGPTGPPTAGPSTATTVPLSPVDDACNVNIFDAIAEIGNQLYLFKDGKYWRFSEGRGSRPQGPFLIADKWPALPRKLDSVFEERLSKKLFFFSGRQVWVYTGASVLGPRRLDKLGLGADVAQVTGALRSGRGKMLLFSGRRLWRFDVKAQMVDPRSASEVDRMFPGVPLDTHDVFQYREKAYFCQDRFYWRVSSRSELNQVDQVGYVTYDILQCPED
T2 sequence (P08254 100-272 limits assumed): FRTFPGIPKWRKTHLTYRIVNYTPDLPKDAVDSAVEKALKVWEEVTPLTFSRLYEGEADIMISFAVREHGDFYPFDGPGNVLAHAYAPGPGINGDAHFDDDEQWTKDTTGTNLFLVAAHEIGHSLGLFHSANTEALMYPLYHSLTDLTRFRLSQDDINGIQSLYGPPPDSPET

As for `CNC(=O)[C@H](Cc1ccccc1)NC(=O)[C@H](CC(C)C)[C@H](CSc1cccs1)C(=O)NO` [BB-94], in assay [1], the survival result is “prolonged the survival” and the tumor burden entry is on record as “decreased the tumor burden”.
`NC(=O)C[C@H](NS(=O)(=O)c1ccc2c(c1)Sc1ccccc1O2)C(=O)O` [Example 16, (S)-2-(Phenoxathiine-2-sulfonylamino)-succinamic acid]: the concentration for half-maximal inhibition (IC50) in assay [2] was > 100 µM; in assay [3], 0.41 µM; in assay [4], 1.55 µM; in [5], 14 µM; in assay [6], 4.4 µM; in assay [7], 0.113 µM. Besides, in assay [8], half-maximal inhibition (IC50) was put at 53 µM.
Consider `O=C(O)[C@@H](NS(=O)(=O)c1ccc2c(c1)Sc1ccccc1O2)c1ccccc1` [Example 17, (S)-(Phenoxathiine-2-sulfonylamino)-phenyl-acetic acid], for which the IC50 in assay [2] is > 100 µM; in assay [3], 2 µM; in assay [4], 0.94 µM; in assay [5], > 100 µM; in [6] it was 12 µM; in assay [7], 0.15 µM. Moreover, the IC50 in [8] was > 100 µM.
With `CNC(=O)[C@H](Cc1c[nH]c2ccccc12)NC(=O)[C@@H](CC(=O)NO)CC(C)C` [GM6001], the “development or clinical expression of EAE” value in assay [9] is listed as “suppressed the development or reversed the clinical expression”.
For “TIMP-1: tissue inhibitors of metalloproteinases”, the “formation of collagen and proteoglycan fragments” value in [10] was “prevented the formation of collagen fragments, but not proteoglycan fragments”; in assay [11] it was “prevented the formation of collagen fragments, but not proteoglycan fragments”.
